Assay results taken from publication PMC11323699, “The CD47/TSP-1 axis: a promising avenue for ovarian cancer treatment and biomarker research” (Molecular Cancer, 2024).

Key:
[1] = Toxicology and safety pharmacology studies in dogs; settings: beagle dogs, data not shown
[2] = system: ID8 Trp53−/− Brca2−/− cells; assay: TAX2 efficacy alone or in sequential combination with olaparib, metastatic peritoneal carcinomatosis model; type: in vivo, C57BL/6 J mice; settings: for Mouse survival, prolonged olaparib design: from day 7 post inoculation olaparib 50 mg/kg per os daily 5 weeks, then TAX2 30 mg/kg IV three times a week, n = 7–11 per group, p = 0.0014 post discontinuation, median survival p = 0.0205; for Animal survival versus controls (Kaplan–Meier): same regimens as Fig. 6b, Gehan–Breslow–Wilcoxon test, TAX2 p = 0.0347 vs controls; for Median survival: treatment from day after IP inoculation, TAX2 30 mg/kg IV 3 times weekly for 6 weeks or olaparib 50 mg/kg per os daily for 2 weeks, n = 9–19 per group, end point 20% body weight gain
Protocol: Eight-week-old C57BL/6 J mice were IP injected with 2 × 10^6 ID8 Trp53^−/− Brca2^−/− cells in 300 µL HBSS. For mouse treatments, TAX2 peptide was IV injected at 30 to 100 mg/kg, three times a week; olaparib (catalog no. M1664, AbMole, TX, USA) was given per os at a 50 mg/kg BW dose, daily. Two different sequential treatments were performed. In the first one, mice were treated one day after tumor inoculation with olaparib for 2 weeks followed by 4 weeks of TAX2. In the second one, mice were randomized 7 days after tumor inoculation and first treated with olaparib daily for 5 weeks or an identical volume of olaparib vehicle composed of 10% (2-hydroxypropyl)-β-cyclodextrin and 10% DMSO in D-PBS buffer. Mice were then sequentially treated with TAX2 for a maximum of 3 weeks. […] Mice were weighed twice or thrice a week and abdominal distension was measured using a digital caliper. Tumor burden was monitored using body weight change as a measure of ascitic fluid buildup post inoculation as previously described in the same model. Gain of 20% body weight was considered as the end point for survival analysis. In this orthotopic model, it is impossible to determine whether the absence of tumor uptake is treatment related or not. Therefore, mice showing no signs of tumor development (carcinosis, nodules, or ascites) at the time of euthanasia were excluded to avoid misinterpretation of the results.
Two-tailed Pearson and Spearman tests were used to assess the correlation between two linear or monotonic variables, respectively, and Mann–Whitney test was used where appropriate. Mouse survival curves were generated using Kaplan–Meier analysis with Gehan–Breslow–Wilcoxon tests as previously reported for ID8 syngeneic model. All graphs and statistics were generated with Prism (GraphPad Software, La Jolla, CA) using the statistical tests and sample sizes indicated in the figure legends.

[3] = system: ID8 Trp53−/− Brca2−/− ovarian carcinoma cells; settings: mouse, in vivo, 10 mg/kg
Protocol: After 5 (IP model) or 10 (SC model) weeks of tumor growth, mice received an IV bolus dose of TAX2-Cy5 at 10 mg/kg BW in injectable saline solution. After in vivo imaging and mouse euthanasia, subcutaneous tumor or peritoneal tumor mass and metastatic nodules, were collected and imaged with instrument sensitivity set to “Normal” using the same protocol as described above for healthy mice. TAX2-Cy5 concentration was calculated as described above.

[4] = Toxicology and safety pharmacology studies in rats; settings: Sprague–Dawley rats, data not shown

Structure (SMILES) | Tolerability after systemic administration [1] | Mice surviving for the duration of the experimental protocol (weak peritoneal carcinomatosis) ([2]; TAX2 30 mg/kg IV 3 times weekly for 6 weeks) | Mouse survival, prolonged olaparib design [2] | Animal survival versus controls (Kaplan–Meier) [2] | Median survival ([2]; control 38 days) [days] | Localization at tumor sites [3] | Tolerability after systemic administration [4] | Mice exhibiting no response to olaparib (tumor burden) ([2]; olaparib 50 mg/kg per os daily for 2 weeks, n = 20, tumor burden by body weight change) [%] | Median survival of olaparib-resistant mice ([2]; olaparib alone 50 mg/kg per os daily for 2 weeks, unresponsive mice n = 14, control 38 days) [days]
CC(C)C[C@@H]1NC(=O)[C@H](CC(C)C)NC(=O)[C@H](CCC(N)=O)NC(=O)[C@H](CO)NC(=O)[C@H](C(C)C)NC(=O)[C@H](CCC(=O)O)NC(=O)[C@@H](N)CSSC[C@@H](C(=O)O)NC(=O)[C@H](C)NC(=O)[C@H](CC(=O)O)NC(=O)CNC(=O)[C@H](CCCCN)NC1=O [TAX2] | very well tolerated | 1 out of 9 | further improved survival | modestly but significantly extended the survival rate | 44 | localization of TAX2 at tumor sites | very well tolerated |  | 
O=C(c1cc(Cc2n[nH]c(=O)c3ccccc23)ccc1F)N1CCN(C(=O)C2CC2)CC1 [olaparib] |  |  | increased mouse survival | failed to improve animal survival | 43 |  |  | 75 | 41
